The record followed here is article PMC3832595, “Synthesis of a Pseudo-Disaccharide Library and Its Application to the Characterisation of the Heparanase Catalytic Site” (PLoS ONE, 2013).

For the experiment, the target named is T1, human heparanase (Homo sapiens, UniProt Q9Y251).
T1 construct: purchased Apollo Scientific, Cheshire UK
T1 sequence (Q9Y251 158-543 limits assumed): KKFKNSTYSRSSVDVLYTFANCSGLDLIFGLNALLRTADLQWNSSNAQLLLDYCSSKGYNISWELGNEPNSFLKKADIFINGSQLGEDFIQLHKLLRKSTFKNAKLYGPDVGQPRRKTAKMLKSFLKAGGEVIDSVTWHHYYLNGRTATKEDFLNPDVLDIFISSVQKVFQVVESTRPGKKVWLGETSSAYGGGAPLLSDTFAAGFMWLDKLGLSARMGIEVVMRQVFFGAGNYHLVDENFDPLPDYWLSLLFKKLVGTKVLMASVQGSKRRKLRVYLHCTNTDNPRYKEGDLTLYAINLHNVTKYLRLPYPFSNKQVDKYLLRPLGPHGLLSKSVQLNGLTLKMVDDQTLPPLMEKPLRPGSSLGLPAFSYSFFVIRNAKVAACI
T1 sequence (Q9Y251 36-109 limits assumed): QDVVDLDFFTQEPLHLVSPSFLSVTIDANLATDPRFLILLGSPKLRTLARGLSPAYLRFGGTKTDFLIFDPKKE
Description: Heparanase inhibition assay (biotinylated heparan sulfate degradation, CBD-FGF binding, avidin-POD detection; modified Genway kit). The format is biochemical. The conditions noted are these: recombinant human heparanase; for IC50: mean of three readings ± standard error, read-out: IC50 (n=3) against human heparanase.

Take `NC1CC(CO)C(OC2OC(CO)C(O)C(O)C2O)CC1O` (stereo not shown) [8b]: the IC50 was found to be 800 ± 200 µM.

For the compound `CCCCOC1CC(O)C(N)CC1CO` (stereo not shown) [compound 11], the “Inhibition of heparanase (result in words)” value is “no significant inhibition” and the IC50 was greater than 10000 µM.

With `NC1CC(CO)C(OC2OC(CO)C(O)C(O)C2O)CC1O` (stereo not shown) [8c], the “Inhibition of heparanase (result in words)” value is “no significant activity” and the IC50 is greater than 10000 µM.

As to `NC1CC(CO)C(OC2OC(CO)C(O)C(O)C2O)CC1O` (stereo not shown) [8d], the IC50 is 800 ± 200 µM.

Consider `NC1CC(CO)C(OC2OC(CO)C(O)C(O)C2O)CC1O` (stereo not shown) [8a], for which the IC50 was 1200 ± 300 µM.
